According to patent US9144239B2, “Macrocyclic picolinamides as fungicides” (DOW AGROSCIENCES LLC, priority 2012, dated 2015):
Where two headings read alike, the source gives them in different places.

Assays:
Format in all cases: in vivo
[1] = test system: Mycosphaerella graminicola; anamorph: Septoria tritici; assay: Fungicidal activity: leaf blotch of wheat (SEPTTR), wheat seedlings; settings: Zymoseptoria tritici, 100 ppm, wheat
Outline: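 Percent control derives from disease severity on treated versus untreated first leaves, rated 0–100% when symptoms were fully expressed on untreated plants. Yuma seedlings were inoculated with S. tritici spores either before or after spraying to run-off. The spray was acetone solution diluted 1:9 in water with 110 ppm Triton X-100. Infection took place in 100% RH dew chambers, then a 20 °C greenhouse.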

[2] = test system: Puccinia triticina; synonym: Puccinia recondita f. sp. tritici; assay: Fungicidal activity: wheat brown rust (PUCCRT), wheat seedlings; settings: 100 ppm, wheat
Outline: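 Wheat (Yuma) seedlings at first-leaf stage, inoculated with Puccinia triticina spores before or after treatment, held overnight in dark dew room at 22° C, 100% RH, then greenhouse at 24° C. Acetone solutions diluted with nine volumes water containing 110 ppm Triton X-100, sprayed to run-off. Percent disease control derived from severity (0–100%) relative to untreated plants.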

Alternaria solani = assay: Fungicidal activity: tomato early blight (ALTESO); settings: 24 h, 1 Day Protectant, read-out: Disease Control ALTESO 1DP
Procedure: Technical grades of materials were dissolved in acetone, which were then mixed with nine volumes of water containing 110 ppm Triton X-100. The fungicide solutions were applied onto wheat seedlings using an automated booth sprayer to run-off. All sprayed plants were allowed to air dry prior to further handling. Wheat plants (variety Yuma) were grown from seed in a greenhouse in 50% mineral soil/50% soil-less Metro mix until the first leaf was fully emerged, with 7-10 seedlings per pot. These plants were inoculated with an aqueous spore suspension of Septoria tritici either prior to or after fungicide treatments. After inoculation the plants were kept in 100% relative humidity (one day in a dark dew chamber followed by two to three days in a lighted dew chamber at 20° C.) to permit spores to germinate and infect the leaf. The plants were then transferred to a greenhouse set at 20° C. for disease to develop. When disease symptoms were fully expressed on the 1st leaves of untreated plants, infection levels were assessed on a scale of 0 to 100 percent disease severity. Percent disease control was calculated using the ratio of disease severity on treated plants relative to untreated plants. Evaluation of Fungicidal Activity: Tomato Early Blight (Alternaria solani; Bayer Code […]) Tomato plants (variety Outdoor girl) were propagated in soil-less Metro mix, with each pot having one plant, and used when 12 to 14 days old. Test plants were inoculated with an aqueous spore suspension of Alternaria solani 24 hr after fungicide treatments. After inoculation the plants were kept in 100% relative humidity (one day in a dark dew chamber followed by two to three days in a lighted dew chamber at 20° C.) to permit spores to germinate and infect the leaf. The plants were then transferred to a growth room at 22° C. for disease to develop. Fungicide formulation, application and disease assessment on the sprayed leaves followed the procedures as described in the Example A.

Uncinula necator = assay: Fungicidal activity: grape powdery mildew (UNCINE); settings: Erysiphe necator, 24 h, 1 Day Protectant, read-out: Disease Control UNCINE 1 DP
Procedure: Technical grades of materials were dissolved in acetone, which were then mixed with nine volumes of water containing 110 ppm Triton X-100. The fungicide solutions were applied onto wheat seedlings using an automated booth sprayer to run-off. All sprayed plants were allowed to air dry prior to further handling. Wheat plants (variety Yuma) were grown from seed in a greenhouse in 50% mineral soil/50% soil-less Metro mix until the first leaf was fully emerged, with 7-10 seedlings per pot. These plants were inoculated with an aqueous spore suspension of Septoria tritici either prior to or after fungicide treatments. After inoculation the plants were kept in 100% relative humidity (one day in a dark dew chamber followed by two to three days in a lighted dew chamber at 20° C.) to permit spores to germinate and infect the leaf. The plants were then transferred to a greenhouse set at 20° C. for disease to develop. When disease symptoms were fully expressed on the 1st leaves of untreated plants, infection levels were assessed on a scale of 0 to 100 percent disease severity. Percent disease control was calculated using the ratio of disease severity on treated plants relative to untreated plants. Evaluation of Fungicidal Activity: Grape Powdery Mildew (Uncinula necator; Bayer Code […]) Grape seedlings (variety Carignane) were grown in soil-less Metro mix, with one plant per pot, and used in the test when approximately one month old. Plants were inoculated 24 hr after fungicide treatment by shaking spores from infected leaves over test plants. Plants were maintained in a greenhouse set at 20° C. until disease was fully developed. Fungicide formulation, application and disease assessment on the sprayed leaves followed the procedures as described in the Example A.

[3] = 24 h, 1 Day Protectant, read-out: Disease Control SEPTTR 1DP
[4] = 72 h, 3 Day Curative, read-out: Disease Control SEPTTR 3DC
[5] = 24 h, 1 Day Protectant, read-out: Disease Control PUCCRT 1DP
[6] = 72 h, 3 Day Curative, read-out: Disease Control PUCCRT 3DC

SMILES	pest or weed control at 100 ppm [1, 3]	pest or weed control at 100 ppm [1, 4]	pest or weed control at 100 ppm [2, 5]	pest or weed control at 100 ppm [2, 6]	pest or weed control at 100 ppm (Alternaria solani)	pest or weed control at 100 ppm (Uncinula necator)
COc1ccnc(C(=O)N[C@H]2COC[C@H](OCC(C)C)[C@@H](OCC(C)C)[C@H](C)OC2=O)c1OCOC(=O)C(C)C [Compound 2]	80 to 100%	80 to 100%	80 to 100%	80 to 100%		
COc1ccnc(C(=O)N[C@H]2COC[C@H](OCC(C)C)[C@@H](OCC(C)C)[C@H](C)OC2=O)c1OCOC(C)=O [Compound 3, (2-((3S,7S,8S,9S)-7,8-diisobutoxy-9-methyl-2-oxo-1,5-dioxonan-3-ylcarbamoyl)-4-methoxypyridin-3-yloxy)methyl]	80 to 100%	80 to 100%	80 to 100%	80 to 100%	0 to 80%	80 to 100%
COc1ccnc(C(=O)NC2COC[C@H](OCc3ccccc3)[C@@H](OCc3ccccc3)[C@H](C)OC2=O)c1OCOC(C)=O (stereo partly shown) [Compound 12]	80 to 100%	80 to 100%	80 to 100%	80 to 100%	0 to 80%	0 to 80%
CCCCO[C@H]1COC[C@H](NC(=O)c2nccc(OC)c2OCOC(C)=O)C(=O)O[C@@H](C)[C@@H]1OCCOC [Compound 54]	0 to 80%	0 to 80%	80 to 100%	80 to 100%		0 to 80%
CCCCO[C@H]1COC[C@H](NC(=O)c2nccc(OC)c2OCOC(C)=O)C(=O)O[C@@H](C)[C@@H]1OCC(F)F [Compound 55]	80 to 100%	80 to 100%	80 to 100%	80 to 100%		0 to 80%
COc1ccnc(C(=O)N[C@H]2COC[C@H](OC(=O)C(C)C)[C@@H](OC(=O)C(C)C)[C@H](C)OC2=O)c1OCOC(C)=O [Compound 57]	80 to 100%	80 to 100%	80 to 100%	80 to 100%	0 to 80%	0 to 80%
COc1ccnc(C(=O)N[C@H]2COC[C@H](OCCCc3ccccc3)[C@@H](OCCCc3ccccc3)[C@H](C)OC2=O)c1OCOC(C)=O [Compound 60]	80 to 100%	0 to 80%	80 to 100%	80 to 100%	0 to 80%	
COc1ccnc(C(=O)N[C@H]2COC[C@H](OC)[C@@H](OC)[C@H](C)OC2=O)c1OCOC(C)=O [Compound 65]		0 to 80%		0 to 80%		0 to 80%
COc1ccnc(C(=O)N[C@H]2COC[C@H](OCCCC(F)(F)F)[C@@H](OCCCC(F)(F)F)[C@H](C)OC2=O)c1OCOC(C)=O [Compound 68]	80 to 100%	80 to 100%	80 to 100%	80 to 100%	0 to 80%	0 to 80%
